Consider 13 molecules from PubChem BioAssay (NCI).

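Briefly, cells in 96-well plates were exposed to five compound concentrations for 48 h, and endpoints were estimated by linear interpolation. TGI denotes the concentration required for complete inhibition of growth.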

Test in all cases: NCI tumour cell line growth inhibition, 48 h
Test [1] has as its system DMS 114 small cell lung.
In test [2] the test system is DMS 273 small cell lung.
Test [3] deals with HOP-18 NSCLC.
Test [4] deals with KM20L2 colon.
The subject of test [5] is M19-MEL melanoma.
The subject of test [6] is P388 leukemia.
Test [7] deals with P388/ADR leukemia.
Test [8] relates to SN12K1 renal.
In test [9] the test system is SNB-78 CNS.
Test [10] concerns XF 498 CNS.
Test [11] deals with LXFL 529 NSCLC.
In test [12] the test system is RXF-631 renal.

`C=CC12CN(C)C3C4COC(CC41)C1(C(=O)Nc4ccccc41)C32` (stereo not given): the TGI in test [1] is more than 200 µM; in [2] it was more than 200 µM; in test [3] it was more than 200 µM; in [4], more than 200 µM; in test [5], more than 200 µM; in test [6], more than 133 µM. Also, the TGI in test [7] was more than 200 µM; in test [8], more than 200 µM; in [9], more than 200 µM; in test [10] it was 29.2 µM.

`CC1=NN(C(=O)c2ccc(Cl)cc2)C(=O)/C1=C/c1cccc([N+](=O)[O-])c1`: the TGI in [1], in test [4], in test [11], in test [5], in test [9] and in [10] was more than 100 µM throughout.

In the case of `Cn1c(=O)nc2n(-c3ccc(Cl)cc3Cl)c3ccccc3nc-2c1=O`, the TGI came to 4.26 µM in test [1]; 23 µM in test [3]; 5.8 µM in test [4]; 2.91 µM in test [5]; 39.3 µM in [9]; 0.864 µM in test [10].

`OC(c1ccccc1)(c1ccccc1)c1cccnc1`: the TGI in test [1], in [2], in test [3], in test [4], in [5] and in [9] was more than 100 µM each time. In [10], the TGI was more than 100 µM.

On to `CC(Oc1ccc(OCC2CCCCC2)cc1)C(=O)N(CCO)CCO` (stereo not given), for which the TGI in test [1], in [2], in test [3], in test [11], in [5] and in [9] was more than 100 µM each time. Moreover, the TGI in test [10] is more than 100 µM.

Consider `C=CCc1ccc(O)c(-c2cc(C3Oc4c(-c5cc(CC=C)ccc5O)cc(O)cc4[C@@H]3CO)ccc2O)c1` (stereo not given in full), for which the TGI was 28.1 µM in test [1]; 44.5 µM in [2]; more than 100 µM in test [3]; 60.3 µM in [4]; 52.5 µM in test [11]; more than 100 µM in test [5]. For the same molecule, in [9], the TGI was more than 100 µM.

For the molecule `CC(CCc1ccc2c(c1)c(=N)c1ccc(N)cc1n2O)CC(C)(C)C` (stereo not given), the TGI is 3.85 µM in test [2]; 3.35 µM in [3]; 2.74 µM in test [4]; 2.98 µM in test [5]; 4.32 µM in test [9]; 2.45 µM in [10].

With `COC(=O)[C@@]12OC[C@]34C([C@@H](O)C1O)[C@@]1(C)CC(=O)C(O)=C(C)C1C[C@H]3OC(=O)[C@H](OC(=O)CC(C)C(F)(F)F)[C@H]42` (stereo not given in full), the TGI in test [1] worked out at 0.128 µM; in test [2] it was 0.0426 µM; in test [3], 2.79 µM; in test [4], 0.172 µM; in test [11], 0.195 µM; in [5], 0.205 µM. For the same molecule, the TGI in test [9] is 37.5 µM; in [10], 0.188 µM.

As for `CC(C)=CCC/C(C)=C/Cc1c(O)ccc2c1[nH]c1cc(O)c(C)cc12`, the TGI in [1], in [2], in test [4], in test [11], in [5] and in test [9] was more than 25 µM in each case. Further, the TGI in [10] was more than 25 µM.

Take `CCOC(=O)CN1CCSC1=NC#N`: the TGI in test [1], in [2], in test [3], in test [4], in test [5] and in test [6] was more than 100 µM throughout. Also, the TGI in test [7], in [8], in [9] and in test [10] was more than 100 µM each time.

Turning to `CN(C)c1ccc(/C=C/c2cc[n+](C)c3ccccc23)cc1`, the TGI came to 9.5 µM in test [1]; 10.8 µM in test [2]; 19.9 µM in [3]; 13.1 µM in [4]; 13.5 µM in test [11]; 14.9 µM in [5]. For the same molecule, the TGI in test [9] came to 72.4 µM.

As to `COC1CC(n2cnc3c(N)ncnc32)OC1CO` (stereo not given), the TGI in [1], in [2], in test [4], in test [11], in test [5] and in test [10] was more than 100 µM throughout.

Take `O=C(Nc1ccc([N+](=O)[O-])cc1)C(=O)C(C(=O)c1ccccc1F)C1OC(=O)c2ccccc21` (stereo not given): the TGI in test [1] is 98 µM; in test [2] it was more than 100 µM; in test [4], more than 100 µM; in [11] it was more than 100 µM; in test [5], more than 100 µM; in test [12] it was 84 µM. The TGI in [9] and in test [10] was more than 100 µM each time.
